Results: patent US20260199239A1, “IONIZABLE LIPIDS WITH MALONATE TAILS” (ModernaTX, Inc., priority 2022, published 2026)

Assays:
[1] = system: hEPO protein expression; experiment: hEPO protein expression in vivo after systemic administration of LNPs; settings: Table 3B groups 1A-8A, ratio to L5 LNP
Method: In order to monitor how effectively various nanoparticle compositions deliver therapeutic and/or prophylactic agents to targeted cells, different nanoparticle compositions including a particular therapeutic and/or prophylactic agent (for example, a modified or naturally occurring RNA such as an mRNA) are prepared and administered to animal populations. Animals (e.g., mice, rats, or non-human primates) are intravenously, intramuscularly, intraarterially, or intratumorally administered a single dose including a nanoparticle composition comprising a lipid of the disclosure and an mRNA expressing a protein, e.g., human erythropoietin (hEPO) or luciferase. A control composition including PBS may also be employed.
Upon administration of nanoparticle compositions to an animal, dose delivery profiles, dose responses, and toxicity of particular formulations and doses thereof can be measured by enzyme-linked immunosorbent assays (ELISA), bioluminescent imaging, or other methods. For nanoparticle compositions including mRNA, time courses of protein expression can also be evaluated. Samples collected from the animals for evaluation may include blood, sera, and tissue (for example, muscle tissue from the site of an intramuscular injection and internal tissue); sample collection may involve sacrifice of the animals.
ELISA test kits may provide hEPO concentrations in milli International Units per mL (mIU/mL), e.g., per mL of tested serum. Typically, the EPO concentration of unknown sample is calculated from a calibration curve. Standards (used for the calibration curve) are calibrated according to the 2. IRP WHO preparation. In some embodiments, mIU/mL corresponds to […]. Nanoparticle compositions including mRNA are useful in the evaluation of the efficacy and usefulness of various formulations for the delivery of therapeutic and/or prophylactic agents. Higher levels of protein expression induced by administration of a composition including an mRNA will be indicative of higher mRNA translation and/or nanoparticle composition mRNA delivery efficiencies. As the non-RNA components are not thought to affect translational machineries themselves, a higher level of protein expression is likely indicative of a higher efficiency of delivery of the therapeutic and/or prophylactic agent by a given nanoparticle composition relative to other nanoparticle compositions or the absence thereof.
In some embodiments, an in vivo expression assay may be used to assess potency of expression of lipids of the disclosure. In some embodiments, the protein expression (hEPO) may be measured in mice following administration of a nanoparticle comprising a lipid of the disclosure (e.g., a loaded LNP). In some embodiments, lipid nanoparticles of the instant disclosure may be intravenously administered to mice (e.g., CD-1 mice).
In some embodiments, the concentration of hEPO in serum may be tested after administration (e.g., about six hours after injection). In some embodiments, residual levels of the lipids of the disclosure in organs or tissue of the subject after administration (e.g., 6 h, 12 h, 18 h, 24 h, 36h, or 48 h after administration) are measured. In some embodiments, the residual levels of the lipids of the disclosure in the liver are measured. In some embodiments, an in vitro expression assay may be used to assess nanoparticles of the disclosure. In some embodiments, cells (e.g., HeLa) may be plated in an imaging plate (e.g., poly-D-lysine coated) and cultured in serum (e.g., human serum, mouse serum, cynomolgus monkey serum or fetal bovine serum). In some embodiments, lipid nanoparticles of the disclosure comprising an mRNA expressing fluorescent protein (e.g., green fluorescent protein (GFP)) and a fluorescent lipid (e.g., rhodamine-DOPE) may be added to the plate and the plate imaged for uptake and expression. In some embodiments, expression may be evaluated by measuring fluorescence (e.g., from GFP). […]

[2] = Endotoxin content of LNP formulation; settings: LNP lipid:PEG-1:DSPC:Cholesterol 48:2:11:39, hEPO mRNA
Source text: (§1) LNPs comprising ionizable lipids described herein were formulated according to Table 2 and the following general procedure.

[3] = pH of LNP formulation; format: physicochemical; settings: LNP formulation in 20 mM Tris 8% Sucrose storage buffer
Source text: as §1

[4] = LNP particle size and polydispersity index (PDI); format: physicochemical; settings: LNP lipid:PEG-1:DSPC:Cholesterol 48:2:11:39, hEPO mRNA, 20 mM Tris 8% Sucrose pH 7.4
Method: A Zetasizer Nano ZS (Malvern Instruments Ltd, Malvern, Worcestershire, UK) can be used to determine the particle size, the polydispersity index (PDI) and the zeta potential of the nanoparticle compositions in 1×PBS in determining particle size and 15 mM PBS in determining zeta potential.
LNPs may be characterized by a variety of methods. For example, microscopy (e.g., transmission electron microscopy or scanning electron microscopy) may be used to examine the morphology and size distribution of a nanoparticle composition. Dynamic light scattering or potentiometry (e.g., potentiometric titrations) may be used to measure zeta potentials. Dynamic light scattering may also be utilized to determine particle sizes. Instruments such as the Zetasizer Nano ZS (Malvern Instruments Ltd, Malvern, Worcestershire, UK) may also be used to measure multiple characteristics of a nanoparticle composition, such as particle size, polydispersity index, and zeta potential.
as §1
(§2) General procedure for one-pot LNP formation: Lipid stock solutions in ethanol are mixed with mRNA in 25 mM acetate solution at a 3:1 ratio in a microfluidic mixer. The resulting LNPs, which are at approximately pH 5 and 25% EtOH, are buffer exchanged by dialysis into the storage buffer. The LNP solutions are then concentrated by Amicon® and purified by a 0.2 uM sterile filter.

[5] = Osmolality of LNP formulation; format: physicochemical; settings: LNP formulation in 20 mM Tris 8% Sucrose storage buffer
Source text: as §1

[6] = mRNA encapsulation by the LNP (% EE, total mRNA in TX); format: physicochemical; settings: LNP lipid:PEG-1:DSPC:Cholesterol 48:2:11:39, hEPO mRNA
Method: For nanoparticle compositions including an RNA, a QUANT-IT™ RIBOGREEN® RNA assay (Invitrogen Corporation Carlsbad, CA) can be used to evaluate the encapsulation of an RNA by the nanoparticle composition. The samples are diluted to a concentration of approximately 5 μg/mL in a TE buffer solution (10 mM Tris-HCl, 1 mM EDTA, pH 7.5). 50 μL of the diluted samples are transferred to a polystyrene 96 well plate and either 50 μL of TE buffer or 50 μL of a 2% Triton X-100 solution is added to the wells. The plate is incubated at a temperature of 37° C. for 15 minutes. The RIBOGREEN® reagent is diluted 1:100 in TE buffer, and 100 μL of this solution is added to each well. The fluorescence intensity can be measured using a fluorescence plate reader (Wallac Victor 1420 Multilablel Counter; Perkin Elmer, Waltham, MA) at an excitation wavelength of, for example, about 480 nm and an emission wavelength of, for example, about 520 nm. The fluorescence values of the reagent blank are subtracted from that of each of the samples and the percentage of free RNA is determined by dividing the fluorescence intensity of the intact sample (without addition of Triton X-100) by the fluorescence value of the disrupted sample (caused by the addition of Triton X-100).
The efficiency of encapsulation of a therapeutic and/or prophylactic agent describes the amount of therapeutic and/or prophylactic agent that is encapsulated or otherwise associated with an LNP after preparation, relative to the initial amount provided. The encapsulation efficiency is desired to be high (e.g., close to 100%). The encapsulation efficiency may be measured, for example, by comparing the amount of therapeutic and/or prophylactic agent in a solution containing a loaded LNP before and after breaking up the loaded LNP with one or more organic solvents or detergents. Fluorescence may be used to measure the amount of free therapeutic and/or prophylactic agent (e.g., RNA) in a solution. For the loaded LNPs formulated with lipids of the disclosure, the encapsulation efficiency of a therapeutic and/or prophylactic agent is at least 50%, for example 50%, 55%, 60%, 65%, 70%, 75%, 80%, 85%, 90%, 91%, 92%, 93%, 94%, 95%, 96%, 97%, 98%, 99%, or 100%. In some embodiments, the encapsulation efficiency is at least 80%. In some embodiments, the encapsulation efficiency is at least 90%. In some embodiments, the encapsulation efficiency of the therapeutic and/or prophylactic agent is between 80% and 100%.
as §1, §2

SMILES | 6 hr protein expression ratio cf. L5 [1] | 24 hr protein expression ratio cf. L5 [1] | Endotoxin (EU/mL) [2] [EU/mL] | pH [3] | PDI [4] | Size (nm) [4] [nm] | Osmolality (mOsm/kg) [5] [mOsm/kg] | % EE [6] [%]
CCCCCCCCC(CCCCCCCC)OC(=O)CCCCCCCN(CCCCCCC(C(=O)OCCCCCC)C(=O)OCCCCCC)CCCNC(C)=O [Compound M4, Dihexyl 2-(6-((3-acetamidopropyl)(8-(heptadecan-9-yloxy)-8-oxooctyl)amino)hexyl)malonate] | 0.34 | 0.36 | 2.6 | 7.450 | 0.099 | 68.7 | 321 | 92.2
CCCCCCCCC(CCCCCCCC)OC(=O)CCCCCCCN(CCCCCCC(C(=O)OCCCCCC)C(=O)OCCCCCC)CCCNC(=O)CC [Compound M5, Dihexyl 2-(6-((8-(heptadecan-9-yloxy)-8-oxooctyl)(3-propionamidopropyl)amino)hexyl)malonate] | 1.37 | 1.15 | 2.7 | 6.962 | 0.496 | 126.7 | 320 | 69.8
CCCCCCCCC(CCCCCCCC)OC(=O)CCCCCCCN(CCCCCCC(C(=O)OCCCCCC)C(=O)OCCCCCC)CCCNC(=O)C1CC1 [Compound M6, Dihexyl 2-(6-((3-(cyclopropanecarboxamido)propyl)(8-(heptadecan-9-yloxy)-8-oxooctyl)amino)hexyl)malonate] | 0.82 | 0.81 | <2 | 7.450 | 0.418 | 104.9 | 317 | 67.8
